“And” between values parts separate entries of the source, which are not always exact repeats. Identical values can stand only once. “Also recorded” adds a separate entry of the source. Ends that are not written are not given here.
Assays:
Type in all cases: in vivo, cats
CD4+ T lymphocytes = test: Counting of circulating CD4+ T lymphocytes by flow cytometry; conditions: acute infection with FIV Wo, FIG. 2
Description: Counting of the CD4^+ T lymphocytes is carried out at regular intervals before the test, on the day of the test and at regular intervals during the acute infection.
The CD4^+ T lymphocytes are counted by flow cytometry, using monoclonal antibodies (Clinisciences).
To evaluate the effect of the immunization on the pathology associated with a primary infection, circulating CD4^+ lymphocytes are counted before and after the test with the FIV Wo strain.

FIV Wo isolate [1] = test: Plasmatic viral load by competitive RT-PCR after the virulence test; conditions: for course of the primary infection (viral RNA in plasma, viral dissemination): after test with 10 CID50 of Wo isolate, relative to control cats, FIG. 3
Description: Groups of four cats 4½ months old are immunized subcutaneously with 120 μg of FIV peptide (approximately 250 μg of peptide coupled to KLH (keyhole limpet haemocyanin)), emulsified in complete Freund's adjuvant.
Four repeat immunizations are administered subcutaneously in an incomplete Freund's adjuvant, generally at intervals of 2-3 weeks, although the interval between the last 2 […] was 7 weeks.
(§1) The cats are subjected to a virulence test, one week after the final immunization, by means of an intraperitoneal inoculation of 10 CID50 of FIV Wo isolate, one CID50 corresponding to the dose capable of infecting 50% of the cats.
The plasma is filtered (0.45 μm) and the RNA not associated with cells is extracted directly from the filtered plasma using the Viral RNA kit (Qiagene) and eluted in 50 μl of water according to the manufacturer's instructions, and the RNA is then divided into aliquots and stored at −80° C.
A conserved region of the FIV gag gene is selected as a target sequence for the reverse transcription of the competitive RNA and the overlapping PCR amplification.
For the synthesis of the cDNA, 2.5 μl of viral RNA are mixed with 2.5 μl containing different numbers of copies of competitive RNA; typically, the various samples of competitive RNA are prepared using 5 semi-logarithmic dilutions, straddling the number of copies estimated in the biological sample.
The RNA is denatured at 65° C. for 5 minutes and immediately placed on ice. The reagents for the reverse transcription (15 μl) are added.
The final reaction mixtures contain 0.3 U/ml of random hexanucleotides (sequences of 6 randomly aligned nucleotides which make it possible theoretically to amplify any RNA fragment) (Pharmcia), 0.5 mM of dNTP, 10 mM of DTT, 1× of commercial buffer (Gibco BRL) and 100 U of Superscript II (Glbco BRL), in a volume of 20 μl.
The reactions are first carried out at 25° C. for 10 minutes to promote the hybridization of the primers, and then at 42° C. for 50 minutes. The reverse transcriptase is inactivated by incubation at 95° C. for 5 minutes.
The highly conserved sequences are selected as primers. The complementary DNA is amplified by overlapping PCR, using:
For the first amplification, the PCR reagents (80 μl) are added as a mixture with 20 μl of cDNA.
The DNA is denatured at 94° C. for 3 minutes, subjected to 28 cycles of amplification (94° C. 30 s/55° C. 30 s/72° C. 30 s) and to an elongation at 72° C. for 7 minutes.
For the overlapping amplification, 2 μl of the product of the first amplification is transferred into 98 μl of reaction mixture containing 200 μM of dNTP, 1.5 mM of MgCl2, 0.5 μM of each internal primer, 1× of commercial buffer (Gibco BRL) and 0.25 U of Taq polymerase (Gibco BRL).
The DNA is denatured at 94° C. for 3 minutes, subjected to 28 cycles of amplification (94° C. 30 s/52° C. 30 s/72° C. 30 s) and to an elongation at 72° C. for 7 minutes.
The amplification products (10 μl ) are subjected to electrophoresis on 2.75% agarose gel.
Digital images of the gels stained with ethidium bromide are obtained using the Appligene Imager and the densitometry analyses are carried out with the Image NIH software. The density of the competitive product is adjusted as a function of the difference between the length of the native sequence and that of the competitive sequence.
The logarithm of the ratio:density or competitive product/density of the native product, is plotted as a function of the logarithm of the number of copies of competitive RNA added to each reaction.
The best adjustment is determined by the least-squares method and the number of copies of native RNA corresponds to the intersection of the axis of the Xs (Piatak M. Jr. et al., Biotechniques, 1993, 14, 70-80).
The cumulative area under the curve (Dawson J., Drug Information J., 1994, 28, 723-732) is calculated from graphs illustrating the ratio: copies of viral RNA/ml of plasma/time, and compared with the Mann-Whitney test.

FIV Wo isolate [2] = test: Plasmatic viraemia by isolation of the virus in PBM cell culture
From the text: as §1
The plasmatic viraemia is quantified by culturing PBM cells (Ho D. D. et a., N. Engl. J. Med., 1989, 321, 1621-1625).
The infection is estimated by determining the p25 by ELISA (Petcheck, IDEXX) in culture supernatants, obtained 14 and 21 days after the inoculation of different volumes of plasma (0.2, 2, 10, 40, 200 or 1000 μl). The final plasmatic dilution giving a positive culture is considered as the limit point.
The plasmatic viraemia is expressed as TCDID50/ml of plasma (→doses capable of infecting 50% of the tissue cultures).
For the cats immunized with the TM3-19 peptide and the control cats, the plasmatic viral load is evaluated 3 weeks after the test by isolating the virus.

[3] = system: p25 recombinant FIV capsid protein; test: Seroconversion ELISA after the virulence test, p25; conditions: for Binding of the sera to p25, 3 weeks after the virulence test / Binding of the sera to p25, 4 weeks after the virulence test / Binding of the sera to p25, 5 weeks after the virulence test: ELISA, seral dilution 1/100, individual cats
Description: as §1
The production on of antibodies is evaluated before the test by means of an ELISA using an immobilized peptide (SU2, SU5, TM2 or TM3-19) and immunoprecipitation. After the test, the seroconversion is monitored by an ELISA using immobilized envelope peptides and a recombinant FTV capsid protein.
The ELISA with the immobilized envelope peptides corresponding to the immunogenic domains SU2 and TM2 and with the immobilized recombinant p25 protein (FIV capsid protein) is carried out as described in Avraméas A. et al. (Res. Virol., 1993, 144, 209-218).
Microplates (Immunolon II, Dynatech) are coated with 0.5 μg/well for the peptides and with 0.1 μg/well for the p25 protein.
The tests are carried out in duplicate and the results are expressed as average values.
After the test, the seroconversion against the envelope peptides and the p25 protein is evaluated at serum dilutions of 1/25 and 1/100, respectively.
The absorbance values (at 405 nm) are corrected by subtraction of the absorbance values obtained by binding with an immobilized control peptide.
The tests are normalized with reference to the binding of a mixture of serum from cats infected with FIV with a peptide representing the immunodominant domain of the FIV transmembrane glycoprotein (TM2) (Avraméas A. et al., Res. Virol., 1993, 144, 209-218).

[4] = 3 weeks after the test with 10 CID50 of FIV Wo, individual cats

Substance | number of CD4+ lymphocytes after the infection (CD4+ T lymphocytes) | Plasmatic viraemia, RT-PCR (FIV Wo isolate [1]; [4]) | course of the primary infection (viral RNA in plasma, viral dissemination) (FIV Wo isolate [1]) | reduction in the viral load relative to the control cats, Mann-Whitney test p (FIV Wo isolate [1]; area under the cumulative curve at 3 weeks and 4 weeks after the test) | detection of plasmatic viraemia during the measurement period (FIV Wo isolate [1]; cat 348) | number of copies of viral RNA observed in plasma (maximum) (FIV Wo isolate [1]; primary infection, measurement period) | Plasmatic viraemia, PBMC culture (FIV Wo isolate [2]; [4]) | reduction in the level of infectious virus in the plasma (FIV Wo isolate [2]; three-quarters of the cats, 3 weeks after the test, versus control cats) | Binding of the sera to p25, 3 weeks after the virulence test [3] | Binding of the sera to p25, 4 weeks after the virulence test [3] | Binding of the sera to p25, 5 weeks after the virulence test [3] | response to the p25 protein ([3]; at 5 weeks after the test)
KKGLQQLQEWEDWVGWIGN [TM3-19, 19-amino-acid fragment of the TM3 domain of the FIV Wo Env transmembrane glycoprotein (759-777)] | does not show a large decrease | undetectable (2×) and 1.19 × 10^7 copies of viral RNA/ml of plasma and 5.56 × 10^6 copies of viral RNA/ml of plasma | generally different from that observed with the control cats; also recorded: the infection in the other 3 cats of this group appears in a retarded manner; also recorded: significantly retards the viral dissemination | 0.02 | not possible to detect a plasmatic viraemia in one of the cats (348) | ≤ 3.1×10^6 copies/ml | 1 TCID50/ml of plasma (3×) and 1 × 10^2 TCID50/ml of plasma | about 3 logs | 0 optical density (2×) and 0.2 optical density and 0.1 optical density | 0.1 optical density and 2.3 optical density and 0 optical density (2×) | 0.6 optical density and 2.3 optical density and 0 optical density and 0.1 optical density | one cat (348) immunized with the TM3-19 peptide does not respond and among the other 3 cats, 2 animals (346, 349) develop only weak responses
SU2: peptide of the SU2 domain of the FIV surface envelope glycoprotein, SEQ ID NO: 2, used as immunogen (RAISSWKQRNRWEWRPD) | gradual reduction |  | does not appear to modify the course of the primary infection; also recorded: do not modify the course of the infection |  |  |  |  |  | 0 optical density | 0.2 optical density (2×) and 0.4 optical density and 0 optical density | 1.1 optical density and 1.3 optical density and 1.9 optical density and 0.2 optical density | 

From patent publication US6391304B1, “Peptides derived from the ENV gene of the feline immunodeficiency virus and their applications” (Centre National de la Recherche Scientifique, priority 1997, dated 2002)
